From ChEMBL document CHEMBL1201862, “PubChem BioAssay data set” (2004)
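A five-concentration, 48-hour dose response in 96-well plates underlies each endpoint, interpolated linearly between surrounding concentrations. At the GI50, growth is halved.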 Calls of active or inactive are those of the source. Rule as the data show it: active = GI50 up to about 1.1 µM and inactive = higher.

Experiments:
Test in all cases: NCI tumour cell line growth inhibition, 48 h
[1] = tested on: NCI-H460
[2] = tested on: NCI-H226
[3] = tested on: SK-OV-3
[4] = tested on: HOP-62
[5] = tested on: CCRF-CEM
[6] = tested on: HOP-92
[7] = tested on: SK-MEL-2
[8] = tested on: MCF7
[9] = tested on: OVCAR-5
[10] = tested on: ACHN
[11] = tested on: 786-0
[12] = tested on: MDA-N
[13] = tested on: TK-10
[14] = tested on: KM12
[15] = tested on: OVCAR-8
[16] = tested on: RXF 393
[17] = tested on: T47D
[18] = tested on: BT-549

Compound	GI50 [1]	GI50 [2]	GI50 [3]	GI50 [4]	GI50 [5]	GI50 [6]	GI50 [7]	GI50 [8]	GI50 [9]	GI50 [10]	GI50 [11]	GI50 [12]	GI50 [13]	GI50 [14]	GI50 [15]	GI50 [16]	GI50 [17]	GI50 [18]
C/N=C(\N)N/N=C(\C)c1ccc2oc3ccc(/C(C)=N/N/C(N)=N/C)cc3c2c1	1.98 µM (inactive)	2.08 µM (inactive)	3.16 µM (inactive)	1.54 µM (inactive)	2.39 µM (inactive)	2.07 µM (inactive)	2 µM (inactive)	1.05 µM (active)	9.35 µM (inactive)	5.45 µM (inactive)	2.86 µM (inactive)	3.62 µM (inactive)	4.38 µM (inactive)	3.16 µM (inactive)	9.27 µM (inactive)			
Oc1c(Cl)c(Cl)c(O)c(CCNc2ccc3ncccc3c2)c1Cl	18.9 µM (inactive)		11.8 µM (inactive)	12.5 µM (inactive)		30.5 µM (inactive)	6.32 µM (inactive)	4.76 µM (inactive)	20.9 µM (inactive)	13.7 µM (inactive)	16.5 µM (inactive)		13.4 µM (inactive)	3.91 µM (inactive)	12.1 µM (inactive)	18.9 µM (inactive)	11 µM (inactive)	
Cc1csc2nc(-c3ccc(Cl)c([N+](=O)[O-])c3)c(/C=N/NC(=N)N)n12	1.78 µM (inactive)	1.67 µM (inactive)	1.84 µM (inactive)	1.61 µM (inactive)	1.01 µM (active)	0.163 µM (active)	1.22 µM (inactive)	1.26 µM (inactive)	1.21 µM (inactive)	1.6 µM (inactive)	1.49 µM (inactive)	1.32 µM (inactive)	2.2 µM (inactive)	1.75 µM (inactive)	0.406 µM (active)	1.63 µM (inactive)	1.81 µM (inactive)	
CC1=NN(c2cccc(Cl)c2)C2(SCC(=O)N2c2nc3ccccc3s2)/C1=C\c1ccccc1 (configuration not stated)	15.3 µM (inactive)	19 µM (inactive)	19.9 µM (inactive)	22.3 µM (inactive)	28.2 µM (inactive)	7.21 µM (inactive)	22.5 µM (inactive)	23.6 µM (inactive)	22.4 µM (inactive)	19.6 µM (inactive)	16.6 µM (inactive)	20.9 µM (inactive)	40.6 µM (inactive)	16.1 µM (inactive)	19.5 µM (inactive)	21.6 µM (inactive)	27.1 µM (inactive)	
Cc1nc(Cc2n[nH]c(C)n2)n[nH]1			> 100 µM (inactive)	> 100 µM (inactive)	> 100 µM (inactive)	> 100 µM (inactive)	> 100 µM (inactive)	> 100 µM (inactive)	> 100 µM (inactive)	> 100 µM (inactive)	> 100 µM (inactive)	> 100 µM (inactive)	> 100 µM (inactive)	> 100 µM (inactive)	> 100 µM (inactive)	> 100 µM (inactive)		> 100 µM (inactive)
CC(SC(=O)Nc1ccc(/N=N/c2ccccc2)cc1)C(=O)O (configuration not stated)	> 100 µM (inactive)	> 100 µM (inactive)		> 100 µM (inactive)	36 µM (inactive)		> 100 µM (inactive)		> 100 µM (inactive)	57.9 µM (inactive)	79.8 µM (inactive)		58.1 µM (inactive)	54.3 µM (inactive)	57 µM (inactive)	73.5 µM (inactive)		
Cc1ccccc1Nc1cn(CCOc2ccccc2)c(=O)n(CCOc2ccccc2)c1=O	> 100 µM (inactive)			24.6 µM (inactive)	> 100 µM (inactive)	19 µM (inactive)		90.8 µM (inactive)	> 100 µM (inactive)	> 100 µM (inactive)	> 100 µM (inactive)	> 100 µM (inactive)		> 100 µM (inactive)		> 100 µM (inactive)		> 100 µM (inactive)
O=C(/C=C/c1ccsc1)c1ccsc1	23.7 µM (inactive)	17 µM (inactive)	> 100 µM (inactive)	> 100 µM (inactive)	19.1 µM (inactive)		> 100 µM (inactive)	13.8 µM (inactive)		20.4 µM (inactive)	21.4 µM (inactive)	23.2 µM (inactive)	23.8 µM (inactive)	18.9 µM (inactive)	26.6 µM (inactive)		28.2 µM (inactive)	
COc1cc(C(SCc2ccccc2)SCc2ccccc2)ccc1O	> 10 µM (inactive)	> 10 µM (inactive)	4.22 µM (inactive)	> 10 µM (inactive)	> 10 µM (inactive)	> 10 µM (inactive)	> 10 µM (inactive)	> 10 µM (inactive)		> 10 µM (inactive)	> 10 µM (inactive)	> 10 µM (inactive)	> 10 µM (inactive)	> 10 µM (inactive)	> 10 µM (inactive)	9.4 µM (inactive)	8.97 µM (inactive)	
